Reference: patent US20190284136A1, “INDOLINE DERIVATIVES” (ViiV HEALTHCARE UK LIMITED, priority 2016, published 2019)
pIC50: −log10 of the molar value.

test system: HIV; assay: Table 1 IC50 of the examples (assay method not given; patent concerns inhibiting HIV replication); type: cell-based; conditions: Human immunodeficiency virus 1

| SMILES | pIC50 |
| --- | --- |
| COc1ccc(C(=O)N2CCc3c2cc(C)c([C@H](OC(C)(C)C)C(=O)O)c3-c2ccc3c(c2C)CCCO3)cc1F (atropisomer, axis not shown) [Example 187, (S)-2-(tert-Butoxy)-2-((R)-1-(3-fluoro-4-methoxybenzoyl)-6-methyl-4-(5-methylchroman-6-yl)indolin-5-yl)acetic acid] | 8.22 |
| COc1ccccc1C(=O)N1CCc2c1cc(C)c([C@H](OC(C)(C)C)C(=O)O)c2-c1ccc(C)cc1 [Example 17, (S)-2-(tert-Butoxy)-2-(1-(2-methoxybenzoyl)-6-methyl-4-(p-tolyl)indolin-5-yl)acetic acid] | 7.96 |
| Cc1ccc(-c2c3c(cc(C)c2[C@H](OC(C)(C)C)C(=O)O)N(C(=O)c2ccc(C)cc2C)CC3)cc1 [Example 9, (S)-2-(tert-Butoxy)-2-(1-(2,4-dimethylbenzoyl)-6-methyl-4-(p-tolyl)indolin-5-yl)acetic acid] | 7.96 |
| Cc1ccc(C(=O)N2CCc3c2cc(C)c([C@H](OC(C)(C)C)C(=O)O)c3-c2cc(F)c3c(c2C)CCCO3)c(Cl)c1 (atropisomer, axis not shown) [Example 137, (S)-2-(tert-Butoxy)-2-((R)-1-(2-chloro-4-methylbenzoyl)-4-(8-fluoro-5-methylchroman-6-yl)-6-methylindolin-5-yl)acetic acid] | 8.40 |
| COc1cccc(C(=O)N2CCc3c2cc(C)c([C@H](OC(C)(C)C)C(=O)O)c3-c2cc(F)c3c(c2C)CCCO3)c1 (atropisomer, axis not shown) [Example 162, (S)-2-(tert-Butoxy)-2-((R)-4-(8-fluoro-5-methylchroman-6-yl)-1-(3-methoxybenzoyl)-6-methylindolin-5-yl)acetic acid] | 8.15 |
| Cc1cc2c(c(-c3cc(F)c4c(c3C)CCCO4)c1[C@H](OC(C)(C)C)C(=O)O)CCN2C(=O)c1ccncc1F (atropisomer, axis not shown) [Example 91, (S)-2-(tert-Butoxy)-2-((R)-4-(8-fluoro-5-methylchroman-6-yl)-1-(3-fluoroisonicotinoyl)-6-methylindolin-5-yl)acetic acid] | 6.81 |
| Cc1cc(F)cc(C(=O)N2CCc3c2cc(C)c([C@H](OC(C)(C)C)C(=O)O)c3-c2cc(F)c3c(c2C)CCCO3)c1 (atropisomer, axis not shown) [Example 97, (S)-2-(tert-Butoxy)-2-((R)-1-(3-fluoro-5-methylbenzoyl)-4-(8-fluoro-5-methylchroman-6-yl)-6-methylindolin-5-yl)acetic acid] | 8.22 |
| COc1c(F)cccc1C(=O)N1CCc2c1cc(C)c([C@H](OC(C)(C)C)C(=O)O)c2-c1ccc2c(c1C)CCCO2 (atropisomer, axis not shown) [Example 181, (S)-2-(tert-Butoxy)-2-((R)-1-(3-fluoro-2-methoxybenzoyl)-6-methyl-4-(5-methylchroman-6-yl)indolin-5-yl)acetic acid] | 8.70 |
| COc1cc(C(=O)N2CCc3c2cc(C)c([C@H](OC(C)(C)C)C(=O)O)c3-c2cc(F)c3c(c2C)CCCO3)cc(F)c1F (atropisomer, axis not shown) [Example 174, (S)-2-(tert-Butoxy)-2-((R)-1-(3,4-Difluoro-5-methoxybenzoyl)-4-(8-fluoro-5-methylchroman-6-yl)-6-methylindolin-5-yl)acetic acid] | 8.22 |
| Cc1ccc(-c2c3c(cc(C)c2[C@H](OC(C)(C)C)C(=O)O)N(C(=O)C2CCCCC2)CC3)cc1 [Example 41, (S)-2-(tert-Butoxy)-2-(1-(cyclohexanecarbonyl)-6-methyl-4-(p-tolyl)indolin-5-yl)acetic acid] | 7.77 |
| Cc1cc2c(c(-c3cc(F)c4c(c3C)CCCO4)c1[C@H](OC(C)(C)C)C(=O)O)CCN2C(=O)C1CCOC1 (stereo partly drawn) [Example 134, (2S)-2-(tert-Butoxy)-2-((4R)-4-(8-fluoro-5-methylchroman-6-yl)-6-methyl-1-(tetrahydrofuran-3-carbonyl)indolin-5-yl)acetic acid] | 6.34 |
| COc1cccc(C(=O)N2CCc3c2cc(C)c([C@H](OC(C)(C)C)C(=O)O)c3-c2ccc(C)cc2)c1F [Example 20, (S)-2-(tert-Butoxy)-2-(1-(2-fluoro-3-methoxybenzoyl)-6-methyl-4-(p-tolyl)indolin-5-yl)acetic acid] | 7.18 |
| Cc1cc2c(c(-c3cc(F)c4c(c3C)CCCO4)c1[C@H](OC(C)(C)C)C(=O)O)CCN2C(=O)c1cccc(F)c1Cl (atropisomer, axis not shown) [Example 49, (S)-2-(tert-Butoxy)-2-((R)-1-(2-chloro-3-fluorobenzoyl)-4-(8-fluoro-5-methylchroman-6-yl)-6-methylindolin-5-yl)acetic acid] | 8.70 |
| Cc1cc2c(c(-c3cc(F)c4c(c3C)CCCO4)c1[C@H](OC(C)(C)C)C(=O)O)CCN2C(=O)c1ccc(F)cc1C(F)(F)F (atropisomer, axis not shown) [Example 64, (S)-2-(tert-Butoxy)-2-((R)-1-(4-fluoro-2-(trifluoromethyl)benzoyl)-4-(8-fluoro-5-methylchroman-6-yl)-6-methylindolin-5-yl)acetic acid] | 8.30 |
| COc1ccc(C(=O)N2CCc3c2cc(C)c([C@H](OC(C)(C)C)C(=O)O)c3-c2cc(F)c3c(c2C)CCCO3)c(C)c1 (atropisomer, axis not shown) [Example 168, (S)-2-(tert-Butoxy)-2-((R)-4-(8-fluoro-5-methylchroman-6-yl)-1-(4-methoxy-2-methylbenzoyl)-6-methylindolin-5-yl)acetic acid] | 7.89 |
| COc1cccc(OC)c1C(=O)N1CCc2c1cc(C)c([C@H](OC(C)(C)C)C(=O)O)c2-c1cc(F)c2c(c1C)CCCO2 (atropisomer, axis not shown) [Example 79, (S)-2-(tert-Butoxy)-2-((R)-1-(2,6-dimethoxybenzoyl)-4-(8-fluoro-5-methylchroman-6-yl)-6-methylindolin-5-yl)acetic acid] | 7.26 |
| Cc1cc2c(c(-c3cc(F)c4c(c3C)CCCO4)c1[C@H](OC(C)(C)C)C(=O)O)CCN2C(=O)c1cccc(Cl)c1 (atropisomer, axis not shown) [Example 52, (S)-2-(tert-Butoxy)-2-((R)-1-(3-chlorobenzoyl)-4-(8-fluoro-5-methylchroman-6-yl)-6-methylindolin-5-yl)acetic acid] | 8.70 |
| CCCNC(=O)N1CCCc2c1cc(C)c(C(OC(C)(C)C)C(=O)O)c2-c1ccc(C)cc1 (stereo not shown) [Example 210, 2-(tert-Butoxy)-2-(7-methyl-1-(propylcarbamoyl)-5-(p-tolyl)-1,2,3,4-tetrahydroquinolin-6-yl)acetic acid] | 5.37 |
| COc1cc(C(=O)N2CCc3c2cc(C)c([C@H](OC(C)(C)C)C(=O)O)c3-c2cc(F)c3c(c2C)CCCO3)ccc1Cl (atropisomer, axis not shown) [Example 123, (S)-2-(tert-Butoxy)-2-((R)-1-(4-chloro-3-methoxybenzoyl)-4-(8-fluoro-5-methylchroman-6-yl)-6-methylindolin-5-yl)acetic acid] | 8.52 |
| Cc1cc2c(c(-c3cc(F)c4c(c3C)CCCO4)c1[C@H](OC(C)(C)C)C(=O)O)CCN2C(=O)c1ccc(C(F)(F)F)cc1F (atropisomer, axis not shown) [Example 136, (S)-2-(tert-Butoxy)-2-((R)-1-(2-fluoro-4-(trifluoromethyl)benzoyl)-4-(8-fluoro-5-methylchroman-6-yl)-6-methylindolin-5-yl)acetic acid] | 7.39 |
| Cc1cccc(C(=O)N2CCc3c2cc(C)c([C@H](OC(C)(C)C)C(=O)O)c3-c2cc(F)c3c(c2C)CCCO3)c1C (atropisomer, axis not shown) [Example 121, (S)-2-(tert-Butoxy)-2-((R)-1-(2,3-dimethylbenzoyl)-4-(8-fluoro-5-methylchroman-6-yl)-6-methylindolin-5-yl)acetic acid] | 8.15 |
| Cc1cc2c(c(-c3cc(F)c4c(c3C)CCCO4)c1[C@H](OC(C)(C)C)C(=O)O)CCN2C(=O)c1cccc(C(F)(F)F)c1F (atropisomer, axis not shown) [Example 160, (S)-2-(tert-Butoxy)-2-((R)-1-(2-fluoro-3-(trifluoromethyl)benzoyl)-4-(8-fluoro-5-methylchroman-6-yl)-6-methylindolin-5-yl)acetic acid] | 7.85 |
| Cc1cc2c(c(-c3cc(F)c4c(c3C)CCCO4)c1C(OC(C)(C)C)C(=O)O)CCN2Cc1ccc(F)c(F)c1 (stereo not shown) [Example 2, 2-(tert-Butoxy)-2-(1-(3,4-difluorobenzyl)-4-(8-fluoro-5-methylchroman-6-yl)-6-methylindolin-5-yl)acetic acid] | 6.48 |
| Cc1cc2c(c(-c3cc(F)c4c(c3C)CCCO4)c1[C@H](OC(C)(C)C)C(=O)O)CCN2C(=O)c1cccc(C(F)(F)F)c1 (atropisomer, axis not shown) [Example 93, (S)-2-(tert-Butoxy)-2-((R)-4-(8-fluoro-5-methylchroman-6-yl)-6-methyl-1-(3-(trifluoromethyl)benzoyl)indolin-5-yl)acetic acid] | 7.72 |
| Cc1ccc(-c2c3c(cc(C)c2[C@H](OC(C)(C)C)C(=O)O)N(C(=O)c2nc(C)sc2C)CC3)cc1 [Example 26, (S)-2-(tert-Butoxy)-2-(1-(2,5-dimethylthiazole-4-carbonyl)-6-methyl-4-(p-tolyl)indolin-5-yl)acetic acid] | 6.91 |
| COc1cc(C(=O)N2CCc3c2cc(C)c([C@H](OC(C)(C)C)C(=O)O)c3-c2cc(F)c3c(c2C)CCCO3)ccc1C [Example 71, (S)-2-(tert-Butoxy)-2-((R)-4-(8-fluoro-5-methylchroman-6-yl)-1-(3-methoxy-4-methylbenzoyl)-6-methylindolin-5-yl)acetic acid] | 8.40 |
| Cc1ccc(-c2c3c(cc(C)c2[C@H](OC(C)(C)C)C(=O)O)N(C(=O)OC(C)(C)C)CC3)cc1 [Example 24, (S)-2-(tert-Butoxy)-2-(1-(tert-butoxycarbonyl)-6-methyl-4-(p-tolyl)indolin-5-yl)acetic acid] | 7.33 |
| Cc1cc2c(c(-c3cc(F)c4c(c3C)CCCO4)c1[C@H](OC(C)(C)C)C(=O)O)CCN2C(=O)c1c(F)cccc1F (atropisomer, axis not shown) [Example 111, (S)-2-(tert-Butoxy)-2-((R)-1-(2,6-difluorobenzoyl)-4-(8-fluoro-5-methylchroman-6-yl)-6-methylindolin-5-yl)acetic acid] | 7.37 |
